Test results from US8409550B2, “Method for treating skin with retinoids and retinoid boosters” (Unilever Home & Personal Care, USA, Division of Conopco, …, priority 2000, dated 2013).
Where “and” joins values, the source holds several entries; their conditions need not be identical. Equal values may be shown once.

Key:
Retinol Dehydrogenase = experiment: Assay for retinol dehydrogenase activity, rat liver microsomes (to identify B2); type: biochemical; details: test compound final 100 μM
Method: 2.2 Isolation of Rat Liver Microsomes (4)
The resulting homogenate was successively centrifuged for 30 min. at 10,000 g, 30 min. at 20,000 g, and 15 min. at 30,000 g, and the resulting supernatant was ultra-centrifuged for 80 min. at 105,000 g. […] Protein concentrations were determined as described above.
2.4 Assay for Retinol Dehydrogenase Activity (to Identify B2)
The following stock solutions were prepared:
50 mM KH2PO4, pH 7.4 buffer, sterile filtered.
10 mM all trans Retinol (Sigma 87632) in DMSO.
200 mM Nicotinamide adenine dinucleotide phosphate, sodium salt (NADP) (Sigma N0505) in sterile water.
40 mM test compound in appropriate solvent (water, buffer, ethanol, chloroform or DMSO).
1:10 dilution of rat liver Microsomes in 50 mM KH2PO4, pH 7.4 buffer (4 μg/μl).
In a two-dram glass vial with screw cap, the following were added in order:
Buffer to give a final volume of 400 μl
25 μl diluted Microsomes (final=100 μg)—boiled Microsomes were used for controls and regular Microsomes for test samples.
4 μl of 200 mM NADP (final=2 mM)
1 μl of 40 mM test compound (final=100 μM)
8 μl of 10 mM retinol (final=200 μM)
The vials were incubated in a 37° C. shaking water bath for 45 minutes. 500 μl ice-cold ethanol was added to each vial to quench the reaction. The retinoids were extracted twice with ice cold hexane (2.7 ml per extraction). […]

[1] = test system: transglutaminase (TGase I); experiment: Transglutaminase (Tgase) ELISA assay in cultured keratinocytes with retinol and boosters; type: cell-based, human; details: for TG as % C Compd 1 / TG as % C Compd 2 / TG as % C, Compd 3: concentration one log below IC20; for TG as % C, Compd 3: Compound 3 alone; for Tgase levels (Mean): with 10^-7 M retinol
Method: For this reason, a transalutaminase (Tgase) assay was utilised.
Thus TGase I is a useful marker of epidermal keratinocyte differentiation with high TGase I levels indicating a more differentiated state. An ELISA based TGase I assay, using a TGase I antibody, was used to assess the state of differentiation of the cultured keratinocytes in the examples that follow.
Keratinocytes (cultured as described above) were plated in 96 well plates at a density of 4,000-5,000 cells per well in 200 μl media. After incubation for two to three days, or until cells are ˜50% confluent, the media was changed to media containing test compounds (five replicates per test). The cells were cultured for a further 96 hours after which time the media was aspirated and the plates stored at −70° C. Plates were removed from the freezer, and the cells were washed twice with 200 μl of 1×PBS. The cells were incubated for one hour at room temperature (R/T) with TBS/5% BSA (wash buffer, bovine serum albumin). Next the TGase primary antibody was added: 50 μl of monoclonal anti-Tgase I Ab B.C. diluted 1:2000 in wash buffer. The primary antibody was incubated for 2 hours at 37° C. and then rinsed 6× with wash buffer. Cells were then incubated with 50 μl of secondary antibody (Fab fragment, peroxidase conjugated anti-mouse IgG obtaining from Amersham) diluted 1:4,000 in wash buffer for two hours at 37° C., then rinsed three times with wash buffer. Following the rinse with washing buffer, the cells were rinsed 3× with PBS. For colourimetric development, the cells were incubated with 100 μl substrate solution (4 mg o-phenylenediamine and 3.3 μl 30% H2O2 in 10 ml 0.1M citrate buffer pH 5.0) for exactly five minutes, R/T, in darkness (under aluminum foil). The reaction was stopped by the addition of 50 μl 4 N H2SO4. […] Out of the five replicates, four were treated with both antibodies, the fifth one was use as a Tgase background control. Tgase levels were determined and expressed as percentage control.
A suspension of keratinocytes was prepared at a concentration of 3000 cells/200 μl/well in KGM medium (Used 3×10^5 cells/12 ml media in each microtitre plate)
200 μl of the keratinocyte suspension was transferred into each of the inner 60 wells only.
Each plate was incubated at 37° C. and 5% CO2 for 3 days or until cells are ˜50% confluent.
Stock solutions of the samples were prepared in DMSO.
The samples were diluted to desired concentration with the final assay concentration of DMSO being 0.1%.

[2] = in the presence of 10^-7M retinol

Phosphatidyl Choline
% Increase Retinol Dehydrogenase (Retinol Dehydrogenase): 21% increase
TG as % C Compd 1 ([1]; Compound 1 alone, in the presence of 10^-7M retinol): 88 % C
TG as % C Compd 2 ([1]; Compound 2 alone, in the presence of 10^-7M retinol): 88 % C
TG as % C, Compd 3 [1, 2]: 88 % C
Tgase levels (Mean) ([1]; booster 1.2E−08 Molar): 159 % of control
Tgase levels (Mean) ([1]; booster 1.47E−05 Molar): 120.3 % of control
Tgase levels (Mean) ([1]; booster 1.63E−06 Molar): 98.8 % of control
Tgase levels (Mean) ([1]; booster 1.8E−07 Molar): 75.9 % of control
Tgase levels (Mean) ([1]; booster 2.4E−09 Molar): 85.5 % of control
Tgase levels (Mean) ([1]; booster 4.4E−05 Molar): 90.9 % of control
Tgase levels (Mean) ([1]; booster 4.89E−06 Molar): 70.1 % of control
Tgase levels (Mean) ([1]; booster 5.43E−07 Molar): 86.7 % of control
Tgase levels (Mean) ([1]; booster 6.0E−08 Molar): 87.8 % of control
TG as % C Compd 1 ([1]; compound 1 alone, with retinol): 98 % C
TG as % C Compd 2 ([1]; compound 2 alone, with retinol, listed as Phospahtidylcholine): 97 % C
TG as % C Compd 2 ([1]; compound 2 alone, with retinol, listed as Phosphatidyl choline): 98 % C
TG as % C Compd 2 ([1]; compound 2 alone, with retinol, listed as Phosphatidylcholine): 97 % C

Sphingomyelin
% Increase Retinol Dehydrogenase (Retinol Dehydrogenase): 26% increase
TG as % C, Compd 3 [1, 2]: 60 % C
Tgase levels (Mean) ([1]; booster 1.0E−05 Molar): 77.8 % of control
Tgase levels (Mean) ([1]; booster 1.1E−06 Molar): 98.8 % of control
Tgase levels (Mean) ([1]; booster 1.23E−07 Molar): 70.0 % of control
Tgase levels (Mean) ([1]; booster 1.65E−09 Molar): 68.4 % of control
Tgase levels (Mean) ([1]; booster 3.0E−05 Molar): 45 % of control
Tgase levels (Mean) ([1]; booster 3.29E−10 Molar): 69.2 % of control
Tgase levels (Mean) ([1]; booster 3.33E−06 Molar): 76.4 % of control
Tgase levels (Mean) ([1]; booster 3.73E−07 Molar): 91.6 % of control
Tgase levels (Mean) ([1]; booster 4.10E−08 Molar): 74.6 % of control
Tgase levels (Mean) ([1]; booster 8.2E−08 Molar): 115.2 % of control
TG as % C Compd 2 ([1]; compound 2 alone, with retinol): 84 % C and 98 % C
